Assay results as given in patent US20090148382A1, “Technetium- and rhenium-bis(heteroaryl) complexes, and methods of use thereof” (Molecular Insight Pharmaceuticals, Inc., priority 2004, published 2009).

Experiments:
[1] = Stability to transchelation (cysteine / histidine challenge); assay type: physicochemical; conditions: 99mTc-labeled HPLC purified product
Protocol: The stability of the complex to transchelation was investigated by incubating two separate samples of 4b with 1000 fold excess of cysteine and histidine in PBS buffer heated to 37° C.

[2] = Biodistribution / blood clearance of 99mTc complex; assay type: in vivo
Excerpt: We have also explored extensively the use as ligands for metal tricarbonyls, e.g., Re and Tc tricarbonyls, of protected and unprotected versions of [ε-{N,N-di(pyridyl-2-methyl)}α-(fmoc)lysine] (Fmoc-DpK). The choice of the tridentate DpK for the exploration of a single amino acid chelate was based on the excellent RCP and RCY, and the potential to prepare radiopharmaceutical kits. The pyridine-2-methylamine was easily derivatized into the amino acid.
This approach enables the creation of libraries containing the {M(CO)3}^1+ core. We have begun to define the biological fate of the ^99mTc-bis(heteroaryl) complexes, allowing us to compare a series of future tridentate analogs. The dipyridine labeling proceeded in high yield and was stable to excess histidine and cysteine challenges for more than 18 hours. […] Activity decreased in all tissues as a function of time, except in the GI tract, which increased with time.

[3] = target: T1, formyl peptide receptor (Homo sapiens, UniProt P21462); test: Affinity for the formyl peptide receptor by flow cytometry; assay type: binding; conditions: fluorescein labeled fNLFNTK as the reference ligand
T1 sequence (P21462 1-350): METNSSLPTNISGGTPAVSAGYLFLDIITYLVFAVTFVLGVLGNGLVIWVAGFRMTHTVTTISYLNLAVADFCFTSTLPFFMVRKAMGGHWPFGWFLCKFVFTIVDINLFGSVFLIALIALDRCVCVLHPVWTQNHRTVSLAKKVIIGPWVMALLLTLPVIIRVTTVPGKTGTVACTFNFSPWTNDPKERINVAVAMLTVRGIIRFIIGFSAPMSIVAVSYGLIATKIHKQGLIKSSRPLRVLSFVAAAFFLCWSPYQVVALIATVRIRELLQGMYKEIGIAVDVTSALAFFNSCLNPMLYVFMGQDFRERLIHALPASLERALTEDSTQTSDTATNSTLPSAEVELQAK
Protocol: The affinity of 5 and 6 for the formyl peptide receptor was determined by flow cytometry using fluorescein labeled fNLFNTK as the reference ligand.

O=C(NC(CCCCN(Cc1ccccn1)Cc1ccccn1)C(=O)O)OCC1c2ccccc2-c2ccccc21 (stereo not drawn) [Fmoc-DpK, [ε-{N,N-di(pyridyl-2-methyl)}α-(fmoc)lysine]]
degradation in challenge experiments ([1]; 100 mM Cysteine or Histidine in PBS pH 7.2 at 37° C. for 18 hrs): no degradation

O=C1c2ccccc2C(=O)N1CCCCN(Cc1ccccn1)Cc1ccccn1 [[{N,N-di(pyridyl-2-methyl)}N-butyl-phthlalimide]]
degradation in challenge experiments ([1]; 10 mM Cysteine or Histidine in PBS pH 7.2 at 37° C. for 20 hrs): no degradation

[^99mTc(CO)3(DpK)]
blood clearance % ID/g ([2]; 5 minutes): 0.6 % ID/g
blood clearance % ID/g ([2]; 30 minutes): 0.07 % ID/g

fMLF[(SAACQ-Re(CO)3)^+]G [Compound 6]
Kd [3]: 27 ± 13 nM
